≈ marks a conversion by molar mass, not a printed value.
Assays:
Format in all cases: functional
Staphylococcus aureus [1] = test: Antibacterial activity against methicillin-resistant Staphylococcus aureus ATCC 515992 in MHB medium assessed as bacterial growth inhibition by CLSI based broth microdilution method
Pseudomonas aeruginosa [2] = test: Antibiofilm activity against Pseudomonas aeruginosa PAO1 in ABTGC medium assessed as biofilm biomass at 1/4 times MIC incubated for 24 hrs by crystal violet staining based assay relative to control
Escherichia coli = test: Antibacterial activity against Escherichia coli ATCC 25922 in MHB medium assessed as bacterial growth inhibition by CLSI based broth microdilution method
Pseudomonas aeruginosa [3] = test: Antibiofilm activity against Pseudomonas aeruginosa PAO1 in ABTGC medium assessed as biofilm biomass at MIC incubated for 24 hrs by crystal violet staining based assay relative to control
Pseudomonas aeruginosa [4] = test: Antibacterial activity against Pseudomonas aeruginosa ATCC 27853 in MHB medium assessed as bacterial growth inhibition by CLSI based broth microdilution method
Pseudomonas aeruginosa [5] = test: Antibacterial activity against Pseudomonas aeruginosa 1129 in MHB medium assessed as bacterial growth inhibition by CLSI based broth microdilution method
Klebsiella pneumoniae = test: Antibacterial activity against Klebsiella pneumoniae ATCC 700603 in MHB medium assessed as bacterial growth inhibition by CLSI based broth microdilution method
Pseudomonas aeruginosa [6] = test: Antibacterial activity against Pseudomonas aeruginosa 1121 in MHB medium assessed as bacterial growth inhibition by CLSI based broth microdilution method
Pseudomonas aeruginosa [7] = test: Antibacterial activity against Pseudomonas aeruginosa FB in MHB medium assessed as bacterial growth inhibition by CLSI based broth microdilution method
Pseudomonas aeruginosa [8] = test: Antibacterial activity against Pseudomonas aeruginosa PAO1 in ABTGC medium assessed as bacterial growth inhibition
Pseudomonas aeruginosa [9] = test: Antibiofilm activity against Pseudomonas aeruginosa PAO1 in ABTGC medium assessed as biofilm biomass at 1/2 times MIC incubated for 24 hrs by crystal violet staining based assay relative to control
Pseudomonas aeruginosa [10] = test: Antibacterial activity against Pseudomonas aeruginosa 1167 in MHB medium assessed as bacterial growth inhibition by CLSI based broth microdilution method
Staphylococcus aureus [11] = test: Antibacterial activity against Staphylococcus aureus ATCC 25923 in MHB medium assessed as bacterial growth inhibition by CLSI based broth microdilution method
Pseudomonas aeruginosa [12] = test: Antibacterial activity against Pseudomonas aeruginosa PAO1 in MHB medium assessed as bacterial growth inhibition by CLSI based broth microdilution method

Structure (SMILES)	MIC (Staphylococcus aureus [1])	Activity (Pseudomonas aeruginosa [2])	MIC (Escherichia coli)	Activity (Pseudomonas aeruginosa [3])	MIC (Pseudomonas aeruginosa [4])	MIC (Pseudomonas aeruginosa [5])	MIC (Klebsiella pneumoniae)	MIC (Pseudomonas aeruginosa [6])	MIC (Pseudomonas aeruginosa [7])	MIC (Pseudomonas aeruginosa [8])	Activity (Pseudomonas aeruginosa [9])	MIC (Pseudomonas aeruginosa [10])	MIC (Staphylococcus aureus [11])	MIC (Pseudomonas aeruginosa [12])
Cc1cc(=O)c(O)c(CNC(=O)CCC(CCC(=O)NCc2c(O)c(=O)cc(C)n2C)(CCC(=O)NCc2c(O)c(=O)cc(C)n2C)NC(=O)CCC(=O)N2CCN(c3cc4c(cc3F)c(=O)c(C(=O)O)cn4C3CC3)CC2)n1C	> 200 µM	211.1%	0.22 µM (≈ 0.244 µg/mL)	20.7%	7.2 µM (≈ 8 µg/mL)	57.6 µM (≈ 64 µg/mL)	14.4 µM (≈ 16 µg/mL)	28.8 µM (≈ 32 µg/mL)	28.8 µM (≈ 32 µg/mL)	115 µM (≈ 128 µg/mL)	20.9%	14.4 µM (≈ 16 µg/mL)	14.4 µM (≈ 16 µg/mL)	14.4 µM (≈ 16 µg/mL)
Cc1cc(=O)c(O)c(CNC(=O)CCCCCCC(=O)N2CCN(c3cc4c(cc3F)c(=O)c(C(=O)O)cn4C3CC3)CC2)n1C	> 200 µM	141.1%	6.27 µM (≈ 4 µg/mL)	99.9%	> 200 µM	> 200 µM	> 200 µM	> 200 µM	> 200 µM	128 µM (≈ 81.6 µg/mL)	114.9%	> 200 µM	50.2 µM (≈ 32 µg/mL)	> 200 µM
Cc1cc(=O)c(O)c(CNC(=O)CCC(CCC(=O)NCc2c(O)c(=O)cc(C)n2C)(CCC(=O)NCc2c(O)c(=O)cc(C)n2C)NC(=O)CCCC(=O)N2CCN(c3cc4c(cc3F)c(=O)c(C(=O)O)cn4C3CC3)CC2)n1C	> 200 µM	26.1%	0.22 µM (≈ 0.248 µg/mL)	12.7%	7.11 µM (≈ 8 µg/mL)	7.11 µM (≈ 8 µg/mL)	14.2 µM (≈ 16 µg/mL)	3.55 µM (≈ 3.99 µg/mL)	3.55 µM (≈ 3.99 µg/mL)	14.2 µM (≈ 16 µg/mL)	79.3%	1.78 µM (≈ 2 µg/mL)	14.2 µM (≈ 16 µg/mL)	1.78 µM (≈ 2 µg/mL)
Cc1cc(=O)c(O)cn1CCCn1cc(CCC(=O)N2CCN(c3cc4c(cc3F)c(=O)c(C(=O)O)cn4C3CC3)CC2)nn1	> 200 µM	97.6%	51.6 µM (≈ 32 µg/mL)	71.7%	103 µM (≈ 64 µg/mL)	103 µM (≈ 64 µg/mL)	> 200 µM	103 µM (≈ 64 µg/mL)	103 µM (≈ 64 µg/mL)	> 200 µM	127.7%	103 µM (≈ 64 µg/mL)	> 200 µM	103 µM (≈ 64 µg/mL)
Cc1cc(=O)c(O)c(CNC(=O)CCC(CCC(=O)NCc2c(O)c(=O)cc(C)n2C)(CCC(=O)NCc2c(O)c(=O)cc(C)n2C)NC(=O)CCCCC(=O)N2CCN(c3cc4c(cc3F)c(=O)c(C(=O)O)cn4C3CC3)CC2)n1C	> 200 µM	158.1%	0.22 µM (≈ 0.251 µg/mL)	15.1%	7.02 µM (≈ 8 µg/mL)	28.1 µM (≈ 32 µg/mL)	14 µM (≈ 16 µg/mL)	14 µM (≈ 16 µg/mL)	14 µM (≈ 16 µg/mL)	56.2 µM (≈ 64 µg/mL)	9.6%	7.02 µM (≈ 8 µg/mL)	14 µM (≈ 16 µg/mL)	3.51 µM (≈ 4 µg/mL)
Cc1cc(=O)c(O)c(CNC(=O)CCCCC(=O)N2CCN(c3cc4c(cc3F)c(=O)c(C(=O)O)cn4C3CC3)CC2)n1C	> 200 µM	27%	0.05 µM (≈ 0.0305 µg/mL)	23.3%	3.28 µM (≈ 2 µg/mL)	6.56 µM (≈ 4 µg/mL)	6.56 µM (≈ 4 µg/mL)	3.28 µM (≈ 2 µg/mL)	3.28 µM (≈ 2 µg/mL)	13.1 µM (≈ 8 µg/mL)	86.3%	3.28 µM (≈ 2 µg/mL)	13.1 µM (≈ 8 µg/mL)	1.64 µM (≈ 1 µg/mL)
Cn1cc(O)c(=O)cc1CNC(=O)CCCCC(=O)N1CCN(c2cc3c(cc2F)c(=O)c(C(=O)O)cn3C2CC2)CC1	> 200 µM	24.9%	0.1 µM (≈ 0.0596 µg/mL)	86.4%	3.36 µM (≈ 2 µg/mL)	6.72 µM (≈ 4 µg/mL)	6.72 µM (≈ 4 µg/mL)	1.68 µM (≈ 1 µg/mL)	3.36 µM (≈ 2 µg/mL)	6.72 µM (≈ 4 µg/mL)	110.3%	1.68 µM (≈ 1 µg/mL)	13.4 µM (≈ 8 µg/mL)	0.84 µM (≈ 0.5 µg/mL)
Cc1cc(=O)c(O)c(CNC(=O)CCCC(=O)N2CCN(c3cc4c(cc3F)c(=O)c(C(=O)O)cn4C3CC3)CC2)n1C	> 200 µM	84.1%	0.21 µM (≈ 0.125 µg/mL)	39.5%	0.86 µM (≈ 0.512 µg/mL)	13.4 µM (≈ 8 µg/mL)	26.9 µM (≈ 16 µg/mL)	6.72 µM (≈ 4 µg/mL)	13.4 µM (≈ 8 µg/mL)	128 µM (≈ 76.2 µg/mL)	116.8%	6.72 µM (≈ 4 µg/mL)	53.7 µM (≈ 32 µg/mL)	6.72 µM (≈ 4 µg/mL)
Cn1cc(O)c(=O)cc1CNC(=O)CCC(=O)N1CCN(c2cc3c(cc2F)c(=O)c(C(=O)O)cn3C2CC2)CC1	> 200 µM	29.2%	0.06 µM (≈ 0.0341 µg/mL)	55.3%	1.76 µM (≈ 0.999 µg/mL)	3.52 µM (≈ 2 µg/mL)	3.52 µM (≈ 2 µg/mL)	1.76 µM (≈ 0.999 µg/mL)	1.76 µM (≈ 0.999 µg/mL)	7.05 µM (≈ 4 µg/mL)	110.3%	0.88 µM (≈ 0.499 µg/mL)	7.05 µM (≈ 4 µg/mL)	0.88 µM (≈ 0.499 µg/mL)
Cc1cc(=O)c(O)cn1CCCNC(=O)CCC(=O)N1CCN(c2cc3c(cc2F)c(=O)c(C(=O)O)cn3C2CC2)CC1	> 200 µM	116.3%	0.42 µM (≈ 0.25 µg/mL)	92.1%	6.72 µM (≈ 4 µg/mL)	6.36 µM (≈ 3.79 µg/mL)	13.4 µM (≈ 8 µg/mL)	6.72 µM (≈ 4 µg/mL)	3.36 µM (≈ 2 µg/mL)	53.7 µM (≈ 32 µg/mL)	78.2%	3.36 µM (≈ 2 µg/mL)	6.72 µM (≈ 4 µg/mL)	3.36 µM (≈ 2 µg/mL)
Cn1cc(O)c(=O)cc1Cn1cc(CCC(=O)N2CCN(c3cc4c(cc3F)c(=O)c(C(=O)O)cn4C3CC3)CC2)nn1	> 200 µM	99.4%	3.38 µM (≈ 2 µg/mL)	52.1%	108 µM (≈ 64 µg/mL)	108 µM (≈ 64 µg/mL)	> 200 µM	108 µM (≈ 64 µg/mL)	108 µM (≈ 64 µg/mL)	> 200 µM	133.7%	54.1 µM (≈ 32 µg/mL)	> 200 µM	27.1 µM (≈ 16 µg/mL)
Cn1cc(O)c(=O)cc1CNC(=O)CCCC(=O)N1CCN(c2cc3c(cc2F)c(=O)c(C(=O)O)cn3C2CC2)CC1	> 200 µM	23.4%	0.11 µM (≈ 0.064 µg/mL)	75.3%	3.44 µM (≈ 2 µg/mL)	6.88 µM (≈ 4 µg/mL)	6.72 µM (≈ 3.91 µg/mL)	3.44 µM (≈ 2 µg/mL)	3.44 µM (≈ 2 µg/mL)	13.8 µM (≈ 8 µg/mL)	189%	1.72 µM (≈ 1 µg/mL)	13.8 µM (≈ 8 µg/mL)	0.86 µM (≈ 0.5 µg/mL)
O=C(CCC(=O)N1CCN(c2cc3c(cc2F)c(=O)c(C(=O)O)cn3C2CC2)CC1)NCc1cc(=O)c(O)cn1O	> 200 µM	48.9%	0.22 µM (≈ 0.125 µg/mL)	137%	7.02 µM (≈ 4 µg/mL)	7.02 µM (≈ 4 µg/mL)	14.1 µM (≈ 8 µg/mL)	7.02 µM (≈ 4 µg/mL)	7.02 µM (≈ 4 µg/mL)	14.1 µM (≈ 8 µg/mL)	54.2%	3.51 µM (≈ 2 µg/mL)	28.1 µM (≈ 16 µg/mL)	1.76 µM (≈ 1 µg/mL)

Reference: ChEMBL document CHEMBL5316325, “Design and Synthesis of 3-Hydroxy-pyridin-4(1H)-ones-Ciprofloxacin Conjugates as Dual Antibacterial and Antibiofilm Agents against Pseudomonas aeruginosa” (J Med Chem, 2023)
